Assay results reported in the supplement of paper PMC10307832.

Columns and labels:
Assay in all cases: relative viability (nuclei count vs DMSO), 5 days (fraction); higher = more cells survive
[1] = compound: CC(O)(CS(=O)(=O)c1ccc(F)cc1)C(=O)Nc1ccc(C#N)c(C(F)(F)F)c1 [Bicalutamide] + CC1(C)CCC(c2ccc(Cl)cc2)=C(CN2CCN(c3ccc(C(=O)NS(=O)(=O)c4ccc(N[C@H](CCN5CCOCC5)CSc5ccccc5)c(S(=O)(=O)C(F)(F)F)c4)cc3)CC2)C1 [Navitoclax] (partner 0.5 µM)
How it was run: (§1)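 One day after seeding in 1536-well plates, lung cancer cell lines were dosed by pin tool. Dosing was either single-drug or a fixed anchor-drug dose plus five library-drug doses (not always all listed) in √10 steps. After 5 days, nuclei were stained in one fix-and-stain step and counted on 4× images, and relative viability is the nuclei count of treated wells over that of vehicle wells, given as the median of duplicate plates.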

[2] = compound: CC(O)(CS(=O)(=O)c1ccc(F)cc1)C(=O)Nc1ccc(C#N)c(C(F)(F)F)c1 [Bicalutamide] + CC(=O)c1c(C)c2cnc(Nc3ccc(N4CCNCC4)cn3)nc2n(C2CCCC2)c1=O [Palbociclib] (partner 0.5 µM)
How it was run: as §1

[3] = compound: C(C(=O)C(=O)O)Br [Bromopyruvate] + Cc1cc(Nc2cc(N3CCN(C)CC3)nc(Sc3ccc(NC(=O)C4CC4)cc3)n2)n[nH]1 [Tozasertib] (partner 0.1 µM)
How it was run: as §1

[4] = compound: CC(O)(CS(=O)(=O)c1ccc(F)cc1)C(=O)Nc1ccc(C#N)c(C(F)(F)F)c1 [Bicalutamide] + C[C@]1(O)C[C@@H](c2nc(-c3ccc4ccc(-c5ccccc5)nc4c3)c3c(N)nccn32)C1 [Linsitinib] (partner 1 µM)
How it was run: as §1

Cell Line | relative viability ([1]; first compound 0.08 µM) | relative viability ([1]; first compound 0.253 µM) | relative viability ([1]; first compound 0.8 µM) | relative viability ([1]; first compound 2.53 µM) | relative viability ([2]; first compound 0.08 µM) | relative viability ([2]; first compound 0.253 µM) | relative viability ([2]; first compound 0.8 µM) | relative viability ([2]; first compound 2.53 µM) | relative viability ([3]; first compound 1 µM) | relative viability ([3]; first compound 3.162 µM) | relative viability ([3]; first compound 10 µM) | relative viability ([3]; first compound 31.62 µM) | relative viability ([3]; first compound 100 µM) | relative viability ([4]; first compound 0.08 µM) | relative viability ([4]; first compound 0.253 µM) | relative viability ([4]; first compound 0.8 µM) | relative viability ([4]; first compound 2.53 µM)
BEN | 0.0525 | 0.0535 | 0.0851 | 0.0653 | 0.442 | 0.438 | 0.526 | 0.496 | 0.556 | 0.558 | 0.426 | 0.499 | 0.402 | 1.04 | 0.802 | 1.26 | 0.966
NCI-H2347 | 0.853 | 0.795 | 0.848 | 0.774 | 0.473 | 0.468 | 0.446 | 0.399 | 0.69 | 0.534 | 0.715 | 0.479 | 0.609 | 1.1 | 0.944 | 1.02 | 0.934
NCI-H1395 | 1.1 | 1.1 | 1.55 | 1.1 | 0.645 | 0.624 | 0.639 | 0.568 | 0.757 | 0.788 | 0.834 | 0.718 | 0.751 | 1.22 | 1.03 | 1.09 | 1
201T | 1.18 | 1.24 | 1.18 | 1.22 | 0.379 | 0.351 | 0.386 | 0.365 | 0.916 | 0.954 | 0.99 | 1.02 | 0.982 | 1.04 | 1.02 | 1.07 | 1.04
NCI-H520 | 0.97 | 1.1 | 1.16 | 1.13 | 0.188 | 0.185 | 0.286 | 0.226 | 0.467 | 0.448 | 0.395 | 0.422 | 0.328 | 0.941 | 0.875 | 1.12 | 0.815
NCI-H727 | 0.457 | 0.415 | 0.405 | 0.373 | 0.647 | 0.645 | 0.693 | 0.635 | 0.593 | 0.745 | 0.644 | 0.591 | 0.535 | 0.234 | 0.356 | 0.295 | 0.269
HCC-15 | 0.757 | 0.685 | 0.761 | 0.712 | 0.727 | 0.501 | 0.79 | 0.767 | 0.393 | 0.546 | 0.286 | 0.371 | 0.399 | 0.826 | 0.837 | 0.932 | 0.969
NCI-H460 | 1.13 | 1.1 | 1.39 | 1.22 | 0.171 | 0.185 | 0.193 | 0.102 | 0.432 | 0.485 | 0.426 | 0.424 | 0.335 | 0.854 | 0.556 | 0.986 | 0.672
EPLC-272H | 1.33 | 1.03 | 1.23 | 0.956 | 0.328 | 0.313 | 0.341 | 0.295 | 0.257 | 0.372 | 0.241 | 0.325 | 0.215 | 1.17 | 1.13 | 1.33 | 1.16
